{"source": "paper doi:10.1101/2021.06.27.450110v1", "about": "(bioRxiv, 2021)", "key": {"[1]": {"test_system": "Burkholderia pseudomallei strains MSHR1364, MSHR2154 and MSHR10517", "conditions": "24 h"}, "BMMs": {"test_system": "BMMs", "assay": "Flow cytometry to measure peptide internalization", "format": "cell-based, mouse", "conditions": "Alexa Fluor 488-labelled peptides, 1 h"}, "BMMs infected with EC958": {"test_system": "BMMs infected with EC958", "assay": "Microscopy to determine location of peptides inside infected BMMs", "format": "cell-based, mouse", "conditions": "8 µM A488-labelled peptide, 1 h, fixed cells, confocal microscopy"}, "red blood cells (RBCs)": {"test_system": "red blood cells (RBCs)", "assay": "Red blood cell hemolysis assay", "format": "cell-based, human", "conditions": "for fold less hemolytic than native tachyplesin I and polyphemusin I: from RBC CC50; for lysis of RBCs: incubation with 128 µM peptide, 37 °C, 1 h"}, "EC958 WT": {"test_system": "EC958 WT", "assay": "Co-treatment of planktonic bacteria with peptides and zinc", "format": "cell-based, Escherichia coli", "conditions": "0.1 mM zinc"}, "EC958ΔzntA": {"test_system": "EC958ΔzntA", "assay": "Co-treatment of planktonic bacteria with peptides and zinc", "format": "cell-based, Escherichia coli", "conditions": "0.1 mM zinc"}}, "note": "Where a SMILES comes first, the peptide text is derived from it. Bridges are numbered along the chain shown (N, C = ends).", "data": [{"smiles": "CC(C)[C@@H]1NC(=O)[C@H](CCCNC(=N)N)NC(=O)[C@H](Cc2ccccc2)NC(=O)[C@@H](NC(=O)[C@H](Cc2c[nH]c3ccccc23)NC(=O)[C@H](CCCNC(=N)N)NC(=O)[C@@H](N)CCCNC(=N)N)CSSC[C@@H](C(=O)N[C@@H](CCCNC(=N)N)C(N)=O)NC(=O)[C@H](CCCCN)NC(=O)[C@H](CCCNC(=N)N)NC(=O)[C@H](Cc2ccc(O)cc2)NC(=O)[C@@H]2CSSC[C@H](NC1=O)C(=O)N[C@@H](Cc1ccc(O)cc1)C(=O)N[C@@H](CCCNC(=N)N)C(=O)NCC(=O)N[C@@H](Cc1ccccc1)C(=O)N2", "note": "[Polyphemusin-I] (H-RRWCFRVCYRGFCYRKCR-NH2; disulfide 4-17, 8-13)", "values": [{"measurement": "Antimicrobial activity: MIC, Burkholderia pseudomallei", "setting": "[1]", "value": "> 64", "unit": "µM"}]}, {"smiles": "CC(C)C[C@H](NC(=O)[C@H](CCCNC(=N)N)NC(=O)CNC(=O)CNC(=O)[C@@H](N)CCCNC(=N)N)C(=O)N[C@H]1CSSC[C@@H](C(=O)N[C@H](C(=O)NCC(=O)N[C@@H](CCCNC(=N)N)C(N)=O)C(C)C)NC(=O)[C@H](C(C)C)NC(=O)[C@@H]2CSSC[C@H](NC(=O)[C@H](Cc3ccc(O)cc3)NC1=O)C(=O)N[C@@H](CCCNC(=N)N)C(=O)N[C@@H](CCCNC(=N)N)C(=O)N[C@@H](CCCNC(=N)N)C(=O)N[C@@H](Cc1ccccc1)C(=O)N2", "note": "[Protegrin-I]", "values": [{"measurement": "Antimicrobial activity: MIC, Burkholderia pseudomallei", "setting": "[1]", "value": "> 64", "unit": "µM"}]}, {"smiles": "CC[C@H](C)[C@@H]1NC(=O)CNC(=O)[C@H](CCCNC(=N)N)NC(=O)[C@H](Cc2ccc(O)cc2)NC(=O)[C@@H]2CSSC[C@H](NC1=O)C(=O)N[C@@H](Cc1ccc(O)cc1)C(=O)N[C@@H](CCCNC(=N)N)C(=O)N[C@@H](CCCNC(=N)N)C(=O)N[C@H](C(=O)N[C@@H](CCCNC(=N)N)C(N)=O)CSSC[C@H](NC(=O)[C@H](Cc1c[nH]c3ccccc13)NC(=O)[C@@H](N)CCCCN)C(=O)N[C@@H](Cc1ccccc1)C(=O)N[C@@H](CCCNC(=N)N)C(=O)N[C@@H](C(C)C)C(=O)N2", "note": "[Tachyplesin I] (H-KWCFRVCYRGICYRRCR-NH2; disulfide 3-16, 7-12)", "values": [{"measurement": "Antimicrobial activity: MIC, Burkholderia pseudomallei", "setting": "[1]", "value": "> 64", "unit": "µM"}]}, {"smiles": "CC(C)[C@@H]1NC(=O)[C@H](CCCNC(=N)N)NC(=O)[C@H](Cc2ccccc2)NC(=O)[C@@H](NC(=O)[C@H](Cc2c[nH]c3ccccc23)NC(=O)[C@@H](N)CCCCN)CSSC[C@@H](C(=O)N[C@@H](CCCNC(=N)N)C(N)=O)NC(=O)[C@H](CCCNC(=N)N)NC(=O)[C@H](CCCNC(=N)N)NC(=O)[C@H](Cc2ccc(O)cc2)NC(=O)[C@@H]2CSSC[C@H](NC1=O)C(=O)N[C@@H](Cc1ccc(O)cc1)C(=O)N[C@@H](CCCNC(=N)N)C(=O)NCC(=O)N[C@@H](C)C(=O)N2", "note": "[[I11A]tachyplesin I] (H-KWCFRVCYRGACYRRCR-NH2; disulfide 3-16, 7-12)", "values": [{"measurement": "concentration required to internalize 50% of cells compared to tachyplesin I", "setting": "BMMs", "value": "> ten-fold lower concentrations"}, {"measurement": "intracellular localization in BMMs infected with EC958", "setting": "BMMs infected with EC958", "value": "locates mainly within vesicles"}, {"measurement": "fold less hemolytic than native tachyplesin I and polyphemusin I", "setting": "red blood cells (RBCs)", "value": "at least 3 fold"}, {"measurement": "lysis of RBCs", "setting": "red blood cells (RBCs)", "value": "< 50", "unit": "%"}]}, {"smiles": "CC(C)[C@@H]1NC(=O)[C@H](CCCNC(=N)N)NC(=O)[C@H](Cc2ccccc2)NC(=O)[C@@H](NC(=O)[C@H](Cc2c[nH]c3ccccc23)NC(=O)[C@@H](N)CCCCN)CSSC[C@@H](C(=O)N[C@@H](CCCNC(=N)N)C(N)=O)NC(=O)[C@H](CCCNC(=N)N)NC(=O)[C@H](CCCNC(=N)N)NC(=O)[C@H](Cc2ccc(O)cc2)NC(=O)[C@@H]2CSSC[C@H](NC1=O)C(=O)N[C@@H](Cc1ccc(O)cc1)C(=O)N[C@@H](CCCNC(=N)N)C(=O)NCC(=O)N[C@@H](CO)C(=O)N2", "note": "[[I11S]tachyplesin I] (H-KWCFRVCYRGSCYRRCR-NH2; disulfide 3-16, 7-12)", "values": [{"measurement": "concentration required to internalize 50% of cells compared to tachyplesin I", "setting": "BMMs", "value": "> ten-fold lower concentrations"}, {"measurement": "fold less hemolytic than native tachyplesin I and polyphemusin I", "setting": "red blood cells (RBCs)", "value": "at least 3 fold"}, {"measurement": "lysis of RBCs", "setting": "red blood cells (RBCs)", "value": "< 50", "unit": "%"}]}, {"smiles": "O=S(=O)([O-])[O-].[Zn+2]", "note": "[zinc, zinc sulfate]", "values": [{"measurement": "growth of EC958 WT with zinc alone", "setting": "EC958 WT", "value": "does not significantly inhibit"}, {"measurement": "growth of EC958ΔzntA with zinc alone", "setting": "EC958ΔzntA", "value": "does not significantly inhibit"}]}]}
